Test results as given in DBAASP.
Converted amounts (≈) assume the structure as drawn. Blank lines part the entries; values can stand above or below the compound they belong to.

Tests used:
Assay in all cases: ≥ marks a high value that may be exact or a test limit, other limits are often not marked, values filed in µg/mL are converted to µM
[1] = system: Bacillus subtilis ATCC 6633
[2] = system: Escherichia coli ATCC 25922
[3] = system: Pseudomonas aeruginosa ATCC 9027
[4] = system: Salmonella enterica subsp. enterica serovar Typhi ATCC 6399
[5] = system: Staphylococcus aureus ATCC 25923
[6] = system: Streptococcus agalactiae
[7] = system: Bacillus pumilus CVCC 709
[8] = system: Bacillus subtilis CVCC 717
[9] = system: Escherichia coli CVCC 1570
[10] = system: Micrococcus luteus CVCC 1600
[11] = system: Staphylococcus aureus CVCC 1882
[12] = system: Botrytis cinerea
[13] = system: Candida albicans ATCC 10231
[14] = system: Escherichia coli ATCC 11775
[15] = system: Staphylococcus aureus ATCC 12600
[16] = system: Enterobacter cloacae 218R
[17] = system: Enterococcus faecalis ATCC 29212
[18] = system: Enterococcus faecalis W61950
[19] = system: Enterococcus faecalis f43559
[20] = system: Enterococcus faecium mic80
[21] = system: Enterococcus faecium t62764
[22] = system: Escherichia coli ESBL 63103
[23] = system: Escherichia coli ESBL 64771
[24] = system: Klebsiella pneumoniae ESBL 61962
[25] = system: Klebsiella pneumoniae ESBL 63575
[26] = system: Pseudomonas aeruginosa 198
[27] = system: Pseudomonas aeruginosa 213
[28] = system: Pseudomonas aeruginosa 9
[29] = system: Pseudomonas aeruginosa H1027
[30] = system: Pseudomonas aeruginosa H1030
[31] = system: Pseudomonas aeruginosa LES400
[32] = system: Pseudomonas aeruginosa PAO1 H103
[33] = system: Staphylococcus aureus C623
[34] = system: Stenotrophomonas maltophilia ATCC 13637
[35] = system: Bacillus subtilis
[36] = system: Escherichia coli
[37] = system: Klebsiella pneumoniae
[38] = system: Micrococcus luteus
[39] = system: Proteus mirabilis
[40] = system: Pseudomonas aeruginosa
[41] = system: Salmonella typhimurium
[42] = system: Shigella dysenteriae
[43] = system: Staphylococcus aureus
[44] = system: Staphylococcus epidermidis
[45] = system: Klebsiella pneumoniae ATCC 13883
[46] = system: Staphylococcus aureus USA 300 LAC

MIC [1]: 20 µM (≈ 29.9 µg/mL)
MIC [2]: 20 µM (≈ 29.9 µg/mL)
MIC [3]: 10 µM (≈ 15 µg/mL)
MIC [4]: 10 µM (≈ 15 µg/mL)
MIC [5]: 10 µM (≈ 15 µg/mL)
MIC [6]: 20 µM (≈ 29.9 µg/mL)
Compound: CC[C@H](C)[C@H](NC(=O)[C@H](CO)NC(=O)[C@H](CCCCN)NC(=O)[C@H](C)NC(=O)[C@H](C)NC(=O)[C@H](CC(N)=O)NC(=O)[C@H](Cc1c[nH]c2ccccc12)NC(=O)[C@H](CC(C)C)NC(=O)[C@@H](NC(=O)[C@H](CO)NC(=O)[C@H](CC(C)C)NC(=O)[C@@H](N)Cc1ccccc1)[C@@H](C)O)C(=O)N[C@@H](Cc1ccccc1)C(N)=O [FLSTLWNAAKSIF]

MIC [7]: 9 µM (≈ 24 µg/mL)
MIC [8]: 13.3 µM (≈ 35.4 µg/mL)
MIC [9]: 16.7 µM (≈ 44.5 µg/mL)
MIC [10]: 8 µM (≈ 21.3 µg/mL)
MIC [11]: 23.3 µM (≈ 62 µg/mL)
Compound: CC[C@H](C)[C@H](NC(=O)[C@H](CO)NC(=O)[C@H](CCCCN)NC(=O)[C@H](CCCN=C(N)N)NC(=O)[C@H](C)NC(=O)[C@H](C)NC(=O)CN)C(=O)N[C@@H](CCCN=C(N)N)C(=O)N[C@@H](CC(C)C)C(=O)N[C@@H](Cc1cnc[nH]1)C(=O)N[C@@H](CCCN=C(N)N)C(=O)N[C@@H](CC(C)C)C(=O)N[C@@H](Cc1ccc(O)cc1)C(=O)N[C@H](C(=O)N[C@@H](Cc1c[nH]c2ccccc12)C(=O)N[C@@H](CCCCN)C(=O)N[C@@H](C)C(=O)N[C@H](C(=O)N[C@H](C(=O)N[C@@H](Cc1ccc(O)cc1)C(=O)N[C@H](C(=O)N[C@@H](CCCN=C(N)N)C(=O)O)[C@@H](C)O)[C@@H](C)CC)[C@@H](C)O)[C@@H](C)O [GAARKSIRLHRLYTWKATIYTR]

MIC [12]: 0.394 µM (≈ 0.5 µg/mL)
MIC [13]: 15.7 µM (≈ 20 µg/mL)
MIC [14]: ≥ 78.7 µM
MIC [15]: 19.7 µM (≈ 25 µg/mL)
Compound: CC[C@H](C)[C@H](N)C(=O)N[C@@H](CC(C)C)C(=O)NCC(=O)N[C@H](C(=O)N[C@H](C(=O)N[C@H](C(=O)N[C@@H](CO)C(=O)N[C@@H](CC(C)C)C(=O)N[C@@H](CC(C)C)C(=O)N[C@@H](CCCCN)C(=O)N[C@@H](CO)C(=O)N[C@@H](CC(C)C)C(N)=O)[C@@H](C)O)[C@@H](C)CC)[C@@H](C)CC [ILGIITSLLKSL]

MIC [12]: ≥ 200 µM
MIC [13]: > 200 µM
MIC [14]: ≥ 200 µM
MIC [15]: ≥ 200 µM
Compound: CSCC[C@H](NC(=O)[C@@H](NC(=O)[C@H](C)NC(=O)[C@@H]1CCCN1C(=O)[C@H](CO)NC(=O)[C@@H](N)CC(C)C)C(C)C)C(=O)N[C@@H](C)C(=O)N[C@@H](CO)C(=O)N[C@@H](CC(C)C)C(=O)N[C@@H](C)C(N)=O [LSPAVMASLA]

MIC [16]: 7.12 µM (≈ 9.6 µg/mL)
MIC [17]: 27.4 µM (≈ 37 µg/mL)
MIC [18]: ≥ 110 µM
MIC [19]: ≥ 110 µM
MIC [20]: 7.12 µM (≈ 9.6 µg/mL)
MIC [21]: 1.78 µM (≈ 2.4 µg/mL)
MIC [22]: 3.48 µM (≈ 4.7 µg/mL)
MIC [23]: 3.48 µM (≈ 4.7 µg/mL)
MIC [24]: ≥ 110 µM
MIC [25]: 27.4 µM (≈ 37 µg/mL)
MIC [26]: 27.4 µM (≈ 37 µg/mL)
MIC [27]: 27.4 µM (≈ 37 µg/mL)
MIC [28]: 27.4 µM (≈ 37 µg/mL)
MIC [29]: 3.48 µM (≈ 4.7 µg/mL)
MIC [30]: 27.4 µM (≈ 37 µg/mL)
MIC [31]: 27.4 µM (≈ 37 µg/mL)
MIC [32]: 13.3 µM (≈ 18 µg/mL)
MIC [5]: 3.48 µM (≈ 4.7 µg/mL)
MIC [33]: 3.48 µM (≈ 4.7 µg/mL)
MIC [34]: 1.78 µM (≈ 2.4 µg/mL)
Compound: CC[C@H](C)[C@H](NC(=O)[C@H](Cc1c[nH]c2ccccc12)NC(=O)[C@H](Cc1c[nH]c2ccccc12)NC(=O)[C@H](CCCCN)NC(=O)[C@H](CC(C)C)NC(=O)[C@H](CCCN=C(N)N)NC(=O)[C@H](CCCCN)NC(=O)[C@@H](N)CCCN=C(N)N)C(=O)N[C@@H](Cc1ccc(O)cc1)C(=O)O [RKRLKWWIY]

MIC [16]: 11 µM (≈ 16 µg/mL)
MIC [17]: 43.2 µM (≈ 63 µg/mL)
MIC [18]: ≥ 87 µM
MIC [19]: ≥ 87 µM
MIC [20]: 5.62 µM (≈ 8.2 µg/mL)
MIC [21]: 2.74 µM (≈ 4 µg/mL)
MIC [22]: 11 µM (≈ 16 µg/mL)
MIC [23]: 1.37 µM (≈ 2 µg/mL)
MIC [24]: ≥ 87 µM
MIC [25]: 21.2 µM (≈ 31 µg/mL)
MIC [26]: 21.2 µM (≈ 31 µg/mL)
MIC [27]: ≥ 43.2 µM
MIC [28]: 21.2 µM (≈ 31 µg/mL)
MIC [29]: 2.74 µM (≈ 4 µg/mL)
MIC [30]: 21.2 µM (≈ 31 µg/mL)
MIC [31]: 21.2 µM (≈ 31 µg/mL)
MIC [32]: 11 µM (≈ 16 µg/mL)
MIC [5]: 0.685 µM (≈ 1 µg/mL)
MIC [33]: 1.37 µM (≈ 2 µg/mL)
MIC [34]: 0.685 µM (≈ 1 µg/mL)
Compound: NCCCC[C@H](NC(=O)[C@H](Cc1c[nH]c2ccccc12)NC(=O)[C@H](Cc1c[nH]c2ccccc12)NC(=O)[C@H](CCCCN)NC(=O)[C@H](CCCCN)NC(=O)[C@@H](N)Cc1c[nH]c2ccccc12)C(=O)N[C@@H](CCCN=C(N)N)C(=O)N[C@@H](CCCN=C(N)N)C(=O)N[C@@H](Cc1c[nH]c2ccccc12)C(=O)O [WKKWWKRRW]

MIC [35]: 4.4 µM (≈ 6.3 µg/mL)
MIC [36]: 8.73 µM (≈ 12.5 µg/mL)
MIC [37]: 17.5 µM (≈ 25 µg/mL)
MIC [38]: 1.12 µM (≈ 1.6 µg/mL)
MIC [39]: ≥ 140 µM
MIC [40]: 69.8 µM (≈ 100 µg/mL)
MIC [41]: ≥ 69.8 µM
MIC [42]: 17.5 µM (≈ 25 µg/mL)
MIC [43]: 1.12 µM (≈ 1.6 µg/mL)
MIC [44]: 2.17 µM (≈ 3.1 µg/mL)
Compound: CC(C)C[C@H](NC(=O)[C@@H](NC(=O)[C@H](CCCCN)NC(=O)[C@H](CO)NC(=O)[C@H](C)NC(=O)[C@@H](NC(=O)[C@H](CCCCN)NC(=O)[C@H](Cc1ccccc1)NC(=O)[C@H](CC(C)C)NC(=O)[C@H](C)NC(=O)CNC(=O)[C@H](CC(C)C)NC(=O)[C@@H](N)Cc1c[nH]c2ccccc12)C(C)C)C(C)C)C(=O)O [WLGALFKVASKVL]

MIC [2]: 25 µM (≈ 31.8 µg/mL)
MIC [45]: ≥ 50 µM
MIC [46]: 6.2 µM (≈ 7.89 µg/mL)
Compound: CC[C@H](C)[C@H](NC(=O)[C@H](CCCCN)NC(=O)[C@H](CCCN=C(N)N)NC(=O)[C@H](CC(C)C)NC(=O)[C@H](Cc1c[nH]c2ccccc12)NC(=O)[C@@H](N)Cc1c[nH]c2ccccc12)C(=O)N[C@@H](Cc1c[nH]c2ccccc12)C(=O)N[C@@H](Cc1c[nH]c2ccccc12)C(N)=O [WWLRKIWW]
